Assay results reported in the supplement of paper PMC8612539.
Converted amounts (≈) assume the structure as drawn.

Tests used:
Enterococcus spp. = assay: minimum inhibitory concentration (MIC)
Description: (§1)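 Broth microdilution MIC (Sensititre BOPO7F bovine plate, CLSI methods) of 19 antimicrobials against field isolates of P. multocida, M. haemolytica, H. somni (deep nasopharyngeal swabs) and E. coli, Enterococcus spp. (rectal swabs) from weaned dairy heifers. Incubation 16-24 h at 35 C. MIC is the lowest concentration preventing visible growth. Values with <= or > lie at the tested range limits. Trimethoprim-sulfamethoxazole is given as the trimethoprim component of a 1:19 mixture.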

Histophilus somni = assay: minimum inhibitory concentration (MIC)
Description: as §1

CCN1CCN(c2cc3c(cc2F)c(=O)c(C(=O)O)cn3C2CC2)CC1 [Enrofloxacin]
minimum inhibitory concentration [µg/mL]
Details | Enterococcus spp. | Histophilus somni
isolate (source animal id): 2 | 0.25 (≈ 0.696 µM) | –
isolate (source animal id): 3 | – | ≤ 0.12
isolate (source animal id): 4 | – | ≤ 0.12
isolate (source animal id): 7 | – | ≤ 0.12
isolate (source animal id): 14 | – | ≤ 0.12
isolate (source animal id): 15 | – | ≤ 0.12
isolate (source animal id): 17 | – | ≤ 0.12
isolate (source animal id): 18 | – | ≤ 0.12
isolate (source animal id): 20 | – | ≤ 0.12
isolate (source animal id): 23 | – | ≤ 0.12
isolate (source animal id): 35 | > 2 | –
isolate (source animal id): 42 | 0.5 (≈ 1.39 µM) | –
isolate (source animal id): 44 | 0.5 (≈ 1.39 µM) | –
isolate (source animal id): 45 | – | ≤ 0.12
isolate (source animal id): 53 | – | ≤ 0.12
isolate (source animal id): 79 | 1 (≈ 2.78 µM) | –
isolate (source animal id): 83 | – | ≤ 0.12
isolate (source animal id): 88 | 0.25 (≈ 0.696 µM) | ≤ 0.12
isolate (source animal id): 91 | 0.25 (≈ 0.696 µM) | –
isolate (source animal id): 92 | 1 (≈ 2.78 µM) | ≤ 0.12
isolate (source animal id): 93 | – | ≤ 0.12
isolate (source animal id): 99 | – | ≤ 0.12
isolate (source animal id): 100 | – | ≤ 0.12
isolate (source animal id): 105 | – | ≤ 0.12
isolate (source animal id): 107 | – | ≤ 0.12
isolate (source animal id): 108 | – | ≤ 0.12
isolate (source animal id): 109 | – | ≤ 0.12
isolate (source animal id): 110 | – | ≤ 0.12
isolate (source animal id): 111 | 0.25 (≈ 0.696 µM) | –
isolate (source animal id): 117 | – | ≤ 0.12
isolate (source animal id): 121 | – | ≤ 0.12
isolate (source animal id): 122 | 1 (≈ 2.78 µM) | –
isolate (source animal id): 123 | 0.5 (≈ 1.39 µM) | ≤ 0.12
isolate (source animal id): 124 | – | ≤ 0.12
isolate (source animal id): 127 | – | ≤ 0.12
isolate (source animal id): 128 | – | ≤ 0.12
isolate (source animal id): 130 | – | ≤ 0.12
isolate (source animal id): 132 | – | ≤ 0.12
isolate (source animal id): 133 | 1 (≈ 2.78 µM) | –
isolate (source animal id): 135 | – | ≤ 0.12
isolate (source animal id): 140 | – | ≤ 0.12
isolate (source animal id): 141 | – | ≤ 0.12
isolate (source animal id): 142 | – | ≤ 0.12
isolate (source animal id): 144 | – | ≤ 0.12
isolate (source animal id): 146 | – | ≤ 0.12
isolate (source animal id): 147 | – | ≤ 0.12
isolate (source animal id): 151 | – | ≤ 0.12
isolate (source animal id): 153 | – | ≤ 0.12
isolate (source animal id): 154 | – | ≤ 0.12
isolate (source animal id): 156 | – | ≤ 0.12
isolate (source animal id): 157 | – | ≤ 0.12
isolate (source animal id): 158 | 0.5 (≈ 1.39 µM) | –
isolate (source animal id): 168 | 0.5 (≈ 1.39 µM) | –
isolate (source animal id): 169 | 0.5 (≈ 1.39 µM) | –
isolate (source animal id): 171 | 0.5 (≈ 1.39 µM) | –
isolate (source animal id): 175 | 1 (≈ 2.78 µM) | –
isolate (source animal id): 176 | – | ≤ 0.12
isolate (source animal id): 177 | 2 (≈ 5.56 µM) | –
isolate (source animal id): 181 | 0.5 (≈ 1.39 µM) | –
isolate (source animal id): 182 | 0.5 (≈ 1.39 µM) | –
isolate (source animal id): 183 | 0.5 (≈ 1.39 µM) | ≤ 0.12
isolate (source animal id): 186 | – | ≤ 0.12
isolate (source animal id): 187 | 0.5 (≈ 1.39 µM) | –
isolate (source animal id): 190 | 0.5 (≈ 1.39 µM) | –
isolate (source animal id): 194 | 0.5 (≈ 1.39 µM) | –
isolate (source animal id): 195 | 0.5 (≈ 1.39 µM) | –
isolate (source animal id): 196 | – | ≤ 0.12
isolate (source animal id): 197 | 0.5 (≈ 1.39 µM) | –
isolate (source animal id): 198 | – | ≤ 0.12
isolate (source animal id): 200 | – | ≤ 0.12
isolate (source animal id): 206 | – | ≤ 0.12
isolate (source animal id): 208 | – | ≤ 0.12
isolate (source animal id): 210 | – | ≤ 0.12
isolate (source animal id): 211 | 0.5 (≈ 1.39 µM) | –
isolate (source animal id): 212 | – | ≤ 0.12
isolate (source animal id): 214 | 1 (≈ 2.78 µM) | –
isolate (source animal id): 215 | – | ≤ 0.12
isolate (source animal id): 216 | – | ≤ 0.12
isolate (source animal id): 218 | – | ≤ 0.12
isolate (source animal id): 219 | – | ≤ 0.12
isolate (source animal id): 222 | 0.5 (≈ 1.39 µM) | –
isolate (source animal id): 223 | 0.25 (≈ 0.696 µM) | –
isolate (source animal id): 224 | – | ≤ 0.12
isolate (source animal id): 228 | 0.5 (≈ 1.39 µM) | ≤ 0.12
isolate (source animal id): 230 | 0.5 (≈ 1.39 µM) | ≤ 0.12
isolate (source animal id): 233 | – | ≤ 0.12
isolate (source animal id): 235 | 0.5 (≈ 1.39 µM) | –
isolate (source animal id): 236 | 2 (≈ 5.56 µM) | –
isolate (source animal id): 238 | – | ≤ 0.12
isolate (source animal id): 239 | 2 (≈ 5.56 µM) | ≤ 0.12
isolate (source animal id): 241 | 0.5 (≈ 1.39 µM) | ≤ 0.12
isolate (source animal id): 242 | – | ≤ 0.12
isolate (source animal id): 243 | – | ≤ 0.12
isolate (source animal id): 244 | 0.5 (≈ 1.39 µM) | –
isolate (source animal id): 245 | – | ≤ 0.12
isolate (source animal id): 246 | 0.5 (≈ 1.39 µM) | ≤ 0.12
isolate (source animal id): 247 | 0.5 (≈ 1.39 µM) | ≤ 0.12
isolate (source animal id): 248 | – | ≤ 0.12
isolate (source animal id): 250 | 0.25 (≈ 0.696 µM) | ≤ 0.12
isolate (source animal id): 251 | – | ≤ 0.12
isolate (source animal id): 252 | > 2 | ≤ 0.12
isolate (source animal id): 254 | – | ≤ 0.12
isolate (source animal id): 258 | – | ≤ 0.12
isolate (source animal id): 259 | – | ≤ 0.12
isolate (source animal id): 262 | – | ≤ 0.12
isolate (source animal id): 264 | – | ≤ 0.12
isolate (source animal id): 265 | – | ≤ 0.12
isolate (source animal id): 266 | – | ≤ 0.12
isolate (source animal id): 267 | – | ≤ 0.12
isolate (source animal id): 268 | 0.25 (≈ 0.696 µM) | –
isolate (source animal id): 269 | – | ≤ 0.12
isolate (source animal id): 271 | – | ≤ 0.12
isolate (source animal id): 272 | – | ≤ 0.12
isolate (source animal id): 274 | – | ≤ 0.12
isolate (source animal id): 276 | – | ≤ 0.12
isolate (source animal id): 278 | – | ≤ 0.12
isolate (source animal id): 280 | – | ≤ 0.12
isolate (source animal id): 281 | – | ≤ 0.12
isolate (source animal id): 282 | 1 (≈ 2.78 µM) | –
isolate (source animal id): 283 | – | ≤ 0.12
isolate (source animal id): 285 | 1 (≈ 2.78 µM) | –
isolate (source animal id): 288 | – | ≤ 0.12
isolate (source animal id): 289 | 0.5 (≈ 1.39 µM) | –
isolate (source animal id): 290 | 0.5 (≈ 1.39 µM) | –
isolate (source animal id): 291 | – | ≤ 0.12
isolate (source animal id): 292 | – | ≤ 0.12
isolate (source animal id): 296 | 0.5 (≈ 1.39 µM) | ≤ 0.12
isolate (source animal id): 298 | 0.5 (≈ 1.39 µM) | –
isolate (source animal id): 301 | 0.5 (≈ 1.39 µM) | –
isolate (source animal id): 306 | – | ≤ 0.12
isolate (source animal id): 310 | 1 (≈ 2.78 µM) | –
isolate (source animal id): 320 | 0.5 (≈ 1.39 µM) | –
isolate (source animal id): 331 | 0.5 (≈ 1.39 µM) | –
isolate (source animal id): 333 | 0.5 (≈ 1.39 µM) | –
isolate (source animal id): 336 | – | ≤ 0.12
isolate (source animal id): 337 | – | ≤ 0.12
isolate (source animal id): 341 | > 2 | ≤ 0.12
